Measured values published in PMC5843355, “Evaluation of the Trypanosoma brucei 6-oxopurine salvage pathway as a potential target for drug discovery” (PLoS Neglected Tropical Diseases, 2018).
Values joined by “and” are separate entries in the source; they are usually repeats but may differ in a detail not shown here. Equal entries are not always repeated. Where two headings read alike, the source gives them in different places.

How the values were obtained:
HGPRT-I [1] = target: T1, HGPRT-I (Trypanosoma brucei brucei, UniProt Q07010); assay: Inhibition studies, Ki for recombinant HGPRT-I (spectrophotometric assay); type: biochemical; details: 0.1 M Tris pH 8.4, 0.11 M MgCl2, 25°C, parent ANP
T1 construct: 6x His-tag (N); AcTEV cleavage site (N); made in house; host or cells: E. coli One Shot BL21(DE3)
Experimental: (§1) The concentration of enzyme in the assay (varied from 75–200 μg/ml for the two enzymes) and the concentration of PRib-PP was kept at 1 mM. The reaction was carried out using a 1.0 cm path length with a UV Visible spectrometer 1601 (Shimadzu) in the reaction buffer (0.1 M Tris, pH 8.4; 0.11 M MgCl2; at 25°C).
(§2) The concentrations of inhibitors in the assay ranged from 1 nM to 100 μM, depending on the steady-state kinetics of the respective enzyme at that concentration of inhibitor. The reaction was preceded by 1 minute incubation of the respective enzyme with the given inhibitor. The Ki values were calculated using non-linear regression in GraphPad Prism5.

HGPRT-II [2] = target: T2, HGPRT-II (Trypanosoma brucei brucei, UniProt Q38C93); assay: Inhibition studies, Ki for recombinant HGPRT-II (spectrophotometric assay); type: biochemical
Experimental: as §1, §2

HGXPRT [3] = target: T3, HGXPRT (Trypanosoma brucei brucei, UniProt Q38CA1); assay: Inhibition studies, Ki for recombinant HGXPRT (spectrophotometric assay); type: biochemical; details: 0.1 M Tris pH 8.4, 0.11 M MgCl2, 25°C, parent ANP
Experimental: as §1, §2

HGPRT-II [4] = target: T2, HGPRT-II; assay: Steady-state kinetic constants of 6-oxopurine bases for HGPRT-II; type: biochemical; details: PRib-PP 1 mM, pH 8.4, 25°C
Experimental: as §1

HGXPRT [5] = target: T3, HGXPRT; assay: Steady-state kinetic constants of 6-oxopurine bases for HGXPRT; details: PRib-PP 1 mM, pH 8.4, 25°C
Experimental: as §1

HGPRT-I [6] = target: T1, HGPRT-I; assay: Steady-state kinetic constants of 6-oxopurine bases for HGPRT-I; type: biochemical; details: PRib-PP 1 mM, pH 8.4, 25°C
Experimental: as §1

[7] = 0.1 M Tris pH 8.4, 0.11 M MgCl2, 25°C, parent ANP

T1 sequence (Q07010 2-210 limits assumed): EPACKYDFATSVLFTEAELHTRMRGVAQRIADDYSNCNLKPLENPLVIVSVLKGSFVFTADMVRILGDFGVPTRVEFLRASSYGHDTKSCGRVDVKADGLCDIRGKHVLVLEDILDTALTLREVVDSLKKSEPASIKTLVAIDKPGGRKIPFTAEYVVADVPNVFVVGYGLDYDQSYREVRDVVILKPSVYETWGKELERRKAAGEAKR
T3 sequence (Q38CA1 entry or part of it): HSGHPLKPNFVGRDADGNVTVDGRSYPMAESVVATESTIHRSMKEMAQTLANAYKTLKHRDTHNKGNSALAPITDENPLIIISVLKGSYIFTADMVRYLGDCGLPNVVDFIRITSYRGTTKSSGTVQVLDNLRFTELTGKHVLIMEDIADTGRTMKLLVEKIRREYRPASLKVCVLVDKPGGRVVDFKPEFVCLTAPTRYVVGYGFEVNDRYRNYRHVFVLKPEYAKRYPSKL
T2 sequence (Q38C93 entry or part of it): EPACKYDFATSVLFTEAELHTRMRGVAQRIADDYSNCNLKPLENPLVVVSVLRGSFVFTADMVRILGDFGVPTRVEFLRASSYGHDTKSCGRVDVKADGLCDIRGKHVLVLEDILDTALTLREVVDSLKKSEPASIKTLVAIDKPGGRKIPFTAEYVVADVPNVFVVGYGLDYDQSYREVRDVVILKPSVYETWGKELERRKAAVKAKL

SMILES | Ki (HGPRT-I [1]; read-out: HGPRT-I Ki) | Ki (HGPRT-II [2]; [7]) | Ki (HGXPRT [3]; read-out: HGXPRT Ki) | also measured
O=c1[nH]cnc2c1ncn2CCN(CCN(CCP(=O)(O)O)CCP(=O)(O)O)CCP(=O)(O)O [compound 5] | 2470 ± 440 nM | 7020 ± 1620 nM | 10500 ± 1320 nM | –
Nc1nc2nc[nH]c2c(=O)[nH]1 [Guanine] | – | – | – | kcat (HGPRT-II [4]): 0.05 s⁻¹; kcat (HGXPRT [5]): 1.36 s⁻¹
Nc1nc2c(ncn2CC(COCCP(=O)(O)O)OCCP(=O)(O)O)c(=O)[nH]1 (stereo not drawn) [compound 7] | 890 ± 70 nM | 1880 ± 170 nM | 770 ± 60 nM | –
O=c1[nH]c(=O)c2nc[nH]c2[nH]1 [Xanthine] | – | – | – | Km (HGPRT-I [6]): No activity detected; kcat (HGPRT-I [6]): No activity detected; Km (HGPRT-I [6]; listed as xanthine): no affinity; kcat (HGPRT-I [6]; listed as xanthine): no activity; Km (HGPRT-II [4]): No activity detected; kcat (HGPRT-II [4]): No activity detected; kcat (HGPRT-II [4]; listed as xanthine): no activity
O=c1[nH]cnc2c1ncn2CCN(CCOCP(=O)(O)O)CCP(=O)(O)O [compound 3] | 120 nM and < 1000 nM | 60 nM and < 1000 nM | 380 nM and < 1000 nM | –
Nc1nc2c(ncn2CC(COCP(=O)(O)O)COCP(=O)(O)O)c(=O)[nH]1 [compound 6] | – | – | – | Ki (HGPRT-I [1]; HGPRT-I Ki): < 1000 nM; Ki (HGPRT-II [2]): 200 nM and < 1000 nM; Ki (HGXPRT [3]; HGXPRT Ki): < 1000 nM

Now from value to compound, other results behind:

Ki (HGPRT-I [1]; read-out: HGPRT-I Ki) | Ki (HGPRT-II [2]; [7]) | Ki (HGXPRT [3]; read-out: HGXPRT Ki) | SMILES | also measured
110 nM | 250 ± 20 nM | 6540 nM | Nc1nc2c(ncn2CCN(CCOCP(=O)(O)O)CCP(=O)(O)O)c(=O)[nH]1 [compound 2] | –
13500 ± 830 nM | 14200 ± 610 nM | 19900 ± 1750 nM | N#CCCN(CCn1cnc2c(=O)[nH]c(N)nc21)CCP(=O)(O)O [compound 1] | –
290 ± 20 nM | 310 ± 60 nM | – | Nc1nc2c(ncn2CCN(CCN(CCP(=O)(O)O)CCP(=O)(O)O)CCP(=O)(O)O)c(=O)[nH]1 [compound 4] | Ki (HGXPRT [3]; HGXPRT Ki): 1860 ± 290 nM
